The subject of this experiment is chronic low back pain. Description: Treatment of low back pain (herniated disc, lumbar spinal canal stenosis), single-subject case. Format: in vivo, human. The settings on record: person, before the composition.

Description: The acute pain was managed by a combination of pain killer medication and a series of physical therapies at that time. However, chronic low back pain remained ever since. […] The patient was also subjected to a series of disc decompression treatments (20 treatment sessions).
No medication and other treatment were applied prior to taking the composition of the present invention. Two pills (0.5 g each) of the composition of the present invention were taken by the patient every morning and at night (twice a day). Each pill was composed of Rhizoma Gastrodiae Elatae (˜30-60 mg), dry powder of Manitis (˜70-105 mg), dry powder of Agkistrodon seu Bungarus (˜25-40 mg), roots of Radix Aconiti Lateralis Preparata (˜50-90 mg) and Radix Paeoniae Lactiflorae (˜50-90 mg), Herba Asari cum Radice (˜25-40 mg), Cornu cervi Parvum (˜70-100 mg), Eupolyphaga seu Opisthoplatia (˜25-45 mg), and Sulindac (30 mg). Total daily dosage of Sulindac was 120 mg, which is lower than recommended dosage (400 mg/day). Sulindac is a NSAID for the treatment of arthritis, but not proposed for the treatment of sciatica nerve pain.

With `Cc1ccc(-c2cc(C(F)(F)F)nn2-c2ccc(S(N)(=O)=O)cc2)cc1` [Celebrex], the “pain reduction by earlier prescribed medication” value was “not effective in reducing the pain”.

The values above are taken from US20080220084A1, “COMBINATION THERAPY FOR ALLEVIATING PAIN-RELATED CONDITIONS” (Pfantastic Medical Research Institute, LLC, priority 2007, published 2008).
